Entries after “also recorded” stand apart in the source; their conditions may differ. Where two headings read alike, the source gives them in different places.
Columns and labels:
[1] = Spontaneous decomposition in solution (h.p.l.c. / nmr); assay type: physicochemical; settings: for % of the original remaining: 0.2 M aqueous sodium phosphate pH 6.85, room temperature, h.p.l.c.
Protocol: This instability prevented full characterisation of the acid (I), so it was converted with diazomethane to its methyl ester (IV) in an overall yield of 16% from the benzyl ester (II) (A.G. Brown et al, J. Chem. Soc. Perkin Trans. I, 1984, 635). The spectral data obtained for the methyl ester (IV) were indistinguishable from those obtained by A. G. Brown et al 1984.
Benzyl 3-oxoethylidene-7-oxo-4-oxa-1-azabicyclo[3.2.0]heptane-2-carboxylate (II) (50 mg, 0. 17m mol) was dissolved in tetrahydrofuran (5 ml) and 0.2 M sodium phosphate adjusted to pH 6.85 (5 ml), and hydrogenated at ambient temperature and pressure for ten minutes with 10% palladium on carbon (40 mg). The reaction mixture was rapidly filtered and evaporated to dryness while the temperature was maintained below 10° C. The residue was immediately redissolved in D2O to give a solution of the title compound (III). δH(250 MHz, D20) inter alia E isomer 3.25 (1H, d, J 17.4 Hz, 6β-H), 3.65 (1H, dd, J 17.4 and 2.9 Hz, 6 α-H), 5.73 (1H, d, J 1.2 Hz, 2-H), 5.79 (1H, dd, J 8.3 and 1 Hz, 8-H), 5.94 (1H, d, 2.7 Hz, 5-H), 9.55 (1H, d, J 8.3 Hz, 9-H), Z isomer 3.29 (1H, d, J 17.3 Hz, 6β-H), 3.65 (1H, dd, J 17.4 and 2.9 Hz, 6 α-H), 5.27 (1H, s, 2-H), 5.50 (1H, d, J 8.2 Hz, 8-H), 6.00 (1H, d, J2.7 Hz, 5-H), and 9.70 (1H, d, J 8.2 Hz, 9-H). The E and Z isomers were assigned on the relative positions of their 8-proton resonance (Gerald Brooks+Eric Huit J.Chem.Soc. Perkin Trans. I (1983) 2513) and were in the ratio E-Z (2:1). Material prepared by the above hydrogenation with water substituting for the phosphate solution and adjustment of the pH of the reaction mixture to 6.5 with 0.1 M NaOH gave (III) (Yield 35% from NaOH consumed), λmax. (H2O) 262 nm; vmax.(KBr) 3 400, 1 792 (br), and 1 640 cm^−1 (br), […]; thin layer chromatography on silica 60 eluted with butan- 1-ol-ethanol-water (4:1:1) and visualised with Schiffs reagent gave a blue zone (Rf:0.52). Addition of a known weight of fumaric acid to the crude product solution followed by evaporation and nmr analysis indicated a yield of 20% by comparison of the intensity of the fumarate protons with the intensity of the aldehydic proton of (M). When this solution was allowed to stand at room temperature for 3.5 hours, (III) was seen to have decomposed to a yield of 3.2%.

[2] = biological target: Klebsiella E70 β-lactamase; experiment: β-lactamase inhibition by automated chromogenic substrate assay of Reading and Farmer; assay type: biochemical
Protocol: β-lactamase inhibition by (III): A solution of III was tested as a β-lactamase inhibitor by the automated chromogenic substrate assay of C. Reading and T. Farmeragainst Klebsiella E70 β-lactamase. Taking the yield of (III) from the hydrogenation reaction as 35% gave an I^50 with pre-incubation of 0.01 μg/ml and without pre-incubation of enzyme and inhibitor of 1μg/ml.

[3] = tested on: broken cell suspension (BCS) of S.clavuligerus SC2; experiment: Enzymic reduction of (III) to clavulanic acid by broken cell suspension, KaG bioassay; assay type: biochemical, Streptomyces clavuligerus
[4] = tested on: broken cell suspension (BCS) of S.clavuligerus SC2; experiment: as above; assay type: biochemical, Streptomyces clavuligerus; remark: listed apart in the source
Text: Compound (I) was reduced to clavulanic acid by NADPH in the presence of a broken cell suspension of S. clavuligerus SC2 (Table 1). (SC2 is a reisolate of ATCC 27064). The clavulanic acid produced was detected by KaG bioassay (AG. Brown et al J. Antibiot., 1976, 29, 668) and chromatographic tapes loaded with the reaction mixture, were compared with standards to confirm the presence of clavulanic acid. The reduction was complete before a sample could be removed from the reaction vessel, but appeared to give clavulanic acid in only 14% yield. However, should the enzyme be capable of reducing only the Z isomer of (I) (the geometry of clavulanic acid), the yield is 42%.
Enzymic reduction of (III) to clavulanic acid:- solution of (III) (0.23 mg, 1 μmol, estimated by titration of acid (I)) in water ([…] 1μmol) was added to washed 48 hour S.clavuligerus SC2 cells which had been sonicated (EP 0213 914 example 20) (0.5 ml). The suspension was treated with 10 mM NADPH (0.1 ml, 1 umol), made up to one milliliter with 50 mM MOPS buffer at pH 7.0 and incubated in stoppered tubes at 26° C. Samples (0.2 ml) were removed, treated with methanol (0.2 ml) for 5 minutes, and centrifuged. The clear supernatants were made up to 1.6 ml with MOPS buffer and assayed on discs by the KaG method. Undiluted reaction mixture was applied to Whatman No. 1 chromatography tapes which were developed in either butan-1-ol-acetic acid-water (12:3:5) or butan-1-01-ethanol-water (7:1:2), dried, and visualised by application to a KaG bioassay plate. Standard clavulanic acid solutions were developed and visualised similarly.

β-lactamase = β-lactamase inhibitory activity (method not specified); assay type: biochemical
[5] = Boiled BCS + (III) + NADPH 1 mM

O=CC=C1OC2CC(=O)N2C1C(=O)[O-].[Na+] (stereo not shown) [(III), Sodium 3-Oxoethylidene-7-oxo-4-oxa-1-azabicyclo (3.2.0)heptane-2-carboxylate]
% of the original remaining ([1]; after 35 minutes): 85% | % of the original remaining ([1]; after 53 minutes): 63% | yield remaining after decomposition on standing (nmr vs fumaric acid) ([1]; room temperature for 3.5 hours, initial yield 20%): 3.2% | time in which about half had decomposed ([1]; solution of the salt, room temperature, repeated h.p.l.c. analysis): one | I50 with pre-incubation ([2]; with pre-incubation of enzyme and inhibitor, yield of (III) from hydrogenation taken as 35%): 0.01 µg/mL | I50 without pre-incubation ([2]; without pre-incubation of enzyme and inhibitor, yield of (III) taken as 35%): 1 µg/mL | Clavulanic Acid at time 0 mins (KaG bioassy) ([3]; (III) + NADPH 1 mM, no BCS): 8.8 µg/mL | Clavulanic Acid at time 60 mins ([3]; (III) + NADPH 1 mM, no BCS): 7.2 µg/mL | Clavulanic Acid at time 0 mins (KaG bioassy) ([3]; BCS + (III) + NADH 1 mM): 6.2 µg/mL | Clavulanic Acid at time 60 mins ([3]; BCS + (III) + NADH 1 mM): 6.6 µg/mL | Clavulanic Acid at time 0 mins (KaG bioassy) ([3]; BCS + (III)): 8.0 µg/mL | Clavulanic Acid at time 60 mins ([3]; BCS + (III)): 7.0 µg/mL | Clavulanic Acid at time 0 mins (KaG bioassy) ([4]; BCS + (III) + NADPH 1 mM): 28.8 µg/mL | Clavulanic Acid at time 60 mins ([4]; BCS + (III) + NADPH 1 mM): 27.2 µg/mL | Clavulanic Acid at time 0 mins (KaG bioassy) [4, 5]: 6.6 µg/mL | Clavulanic Acid at time 60 mins [4, 5]: 6.6 µg/mL

O=CC=C1CN2C(=O)CC2O1 (stereo not shown) [(V), 3-oxoethylidene-7-oxo-4-oxa-1-azabicyclo [3.2.0] heptane]
chemical and stereochemical stability ([1]; organic solution): chemically and stereochemically stable in organic solution

O=CC=C1OC2CC(=O)N2C1C(=O)O (stereo not shown) [Compound (I), 3-oxoethylidene-7-oxo-4-oxa-1-azabicyclo-[3.2.0] heptane-2-carboxylic acid]
rate of decomposition compared with I 111 broth supernatant ([1]; (I) chemically synthesised from 2R, 5R clavulanic acid): same rate of decomposition | half-life ([1]; aqueous solution, read-out: half life in aqueous solution (converted)): ~30 min | half-life ([1]; at 21° C., read-out: half-life): ~30 min | β-lactamase inhibitory activity (in words) (β-lactamase; chemically synthesised): shown to possess β-lactamase inhibitory activity; also recorded: Strong β-lactamase activity | activity as a β-lactamase inhibitor relative to clavulanic acid (β-lactamase; more active than clavulanic acid): approximately 100 times
